Test results reported in patent US20240217946A1, “ANTIDEPRESSANT AND ANXIOLYTIC SUBSTITUTED CINNAMAMIDE COMPOUND” (TASLY PHARMACEUTICAL GROUP CO., LTD., priority 2021, published 2024).
“And” between values parts separate entries of the source, which are not always exact repeats. Equal values may be shown once. Read-outs that look alike come from different tables or passages of the source.

Key:
[1] = system: DA reuptake in rat brain synaptosomes; test: 3H-DA reuptake by rat brain synaptosomes; format: biochemical; settings: 3H-DA 10 nM, rat brain synaptosomes; read-out: DA inhibition rate % IC50
Text: At present, it is believed that absolute or relative deficiencies of the central monoamine neurotransmitters 5-hydroxytryptamine (5-HT), norepinephrine (NA) and dopamine (DA) are closely related to depression and anxiety. This experiment was designed to evaluate, by the method of in vitro monoamine reuptake, the inhibitory effect of two samples of tested compound I-5 and compound M2 on reuptake of 5-HT, NA and DA in rat brain synaptosomes. The preparation of in vitro SD rat brain synaptosomes and isotopic tracer method were employed to investigate IC50 of inhibition of monoamine reuptake of DA, 5-HT and NA in two tested samples, in order to explore the possible mechanism of antidepressant and anxiolytic effects of compound I-5 and compound M2.
Synaptosomes were separated using methods in literature to prepare brain synaptosomes. SD rats were rapidly decapitated with a small animal decapitator. After decapitation, brains were taken out quickly and precooled in an ice-water mixture, and the pia mater and vascular tissue were removed. Brain tissue was taken out. 10 times volume (ml/g) of 10 mM Tris HCl buffer (containing 0.32 M sucrose, pH 7.4) was added, an ultrasonic cell pulverizer was used for homogenization (maintaining at a low temperature), and the brain tissue was homogenized and centrifuged for 10 min (4° C., 1,000 g). After balanced centrifugation (1500 g, 10 min) at 4° C., precipitate was discarded, then supernatant was taken, and centrifugation (20000 g) was performed again for 30 min. The supernatant was discarded and the precipitate, i.e. crude extract of synaptic corpuscles, was retained. […] The precipitate was suspended in a small amount of Kreb's buffer (NaCl 118 mM, KCl 4.7 mM, CaCl2) 2.5 mM, MgSO4 1.2 mM, KH2PO4 1.2 mM, NaHCO325 mM and Glucose 11.1 mM, pH 7.2-7.4), BCA method was used for protein quantification, and the operation steps were as described in the description. […]
The percentage inhibition of isotope ligand binding by each compound was calculated according to the following equation: […]

[2] = Pharmacokinetics and absolute bioavailability in rats (LC-MS/MS); format: in vivo; settings: rat; for MRT inf: read-out: MRT0-∞
Text: A LC-MS/MS method for determination of compound I-5 and compound M2 in rat plasma was established through experiments to investigate the pharmacokinetic characteristics and absolute bioavailability of compounds in rats.
20 SPF-grade SD male rats (body weight 220±20 g), purchased from Beijing Vital River Laboratory Animal Technology Co., Ltd.
• Chromatographic column: waters BEH C18 1.7 μm; 2.1×100 mm Column • Internal standard: D-I-5 (deuterated compound I-5, with the following structural formula)
20 SD rats were randomly divided into 4 groups, with 5 rats in each group. […]
50 μL plasma was taken, 50 μL D-I-5 (20 ng/mL dissolved in acetonitrile) was added, the mixture was whirled for 30 s, then 100 μL acetonitrile was added; the mixture was fully whirled for 2 min, and was centrifuged at 4° C. at 12000 r/min for 3 min, 50 μL supernatant was taken, 50 μL aqueous solution was added for dilution, followed by whirling for Imin, and 4 μL sample was injected.
The mean plasma concentration-time curves of rats after oral intragastric administration and intravenous administration were respectively shown in FIGS. 8 and 9. Data were processed using DAS 3.0 pharmacokinetic software (Chinese Professional Committee of Mathematical Pharmacology, Shanghai, China), and statistical moment parameters of the non-compartmental model were calculated, Cmax and Tmax being measured values.

[3] = male, SD, plasma, po, intragastric administration 12.5 mg/kg, n = 5
[4] = male, SD, plasma, intravenous administration 2.5 mg/kg, n = 5
[5] = male, Sprague-Dawley (SD), plasma, po, intragastric administration 12.5 mg/kg, n = 5
[6] = male, Sprague-Dawley (SD), plasma, intravenous administration 2.5 mg/kg, n = 5

Molecule `CC(C)CNC(=O)/C=C/c1cc2c(c(C(F)(F)F)c1)OCO2` [Compound I-5] has an IC50 [1] of 26 ± 1.33 nM, a bioavailability ([2]; male, SD, plasma, oral, absolute bioavailability, intragastric 12.5 mg/kg vs intravenous 2.5 mg/kg, read-out: F (bioavailability, %)) of 24.1% and an AUC(0-t) [2, 3] of 523 ± 433 ng·h/mL. It also gave a Tmax [2, 3] of 21 min, a half-life [2, 3] of 55.8 ± 22.8 min and a C0 [2, 4] of 2050 ± 907 ng/mL. It also gave a half-life [2, 4] of 39.6 ± 4.2 min, a concentration at 0.08 h ([2]; male, SD, plasma, iv, 2.5 mg/kg, single intravenous 2.5 mg/kg, 0.08 h, read-out: Plasma concentration, Mean) of 1150 ng/mL and a concentration at 0.25 h ([2]; male, SD, plasma, iv, 2.5 mg/kg, single intravenous 2.5 mg/kg, 0.25 h, read-out: Plasma concentration, Mean) of 393 ng/mL. The concentration at 0.5 h ([2]; male, SD, plasma, iv, 2.5 mg/kg, single intravenous 2.5 mg/kg, 0.50 h) was 152 ng/mL, the concentration at 1 h ([2]; male, SD, plasma, iv, 2.5 mg/kg, single intravenous 2.5 mg/kg, 1 h, read-out: Plasma concentration, Mean) was 60.3 ng/mL and the concentration at 2 h ([2]; male, SD, plasma, iv, 2.5 mg/kg, single intravenous 2.5 mg/kg, 2 h) was 16.8 ng/mL. For the same molecule, the concentration at 3 h ([2]; male, SD, plasma, iv, 2.5 mg/kg, single intravenous 2.5 mg/kg, 3 h) was 6.9 ng/mL, the concentration at 4 h ([2]; male, SD, plasma, iv, 2.5 mg/kg, single intravenous 2.5 mg/kg, 4 h, read-out: Plasma concentration, Mean) was 3 ng/mL and the concentration at 4 h ([2]; male, SD, plasma, iv, 2.5 mg/kg, single intravenous 2.5 mg/kg, 4 h, read-out: Plasma concentration, individual rats) was 3.01 ng/mL. It also gave a concentration at 0.08 h ([2]; male, SD, plasma, oral, 12.5 mg/kg, single intragastric 12.5 mg/kg, 0.08 h, read-out: Plasma concentration, Mean) of 118 ng/mL, a concentration at 0.25 h ([2]; male, SD, plasma, oral, 12.5 mg/kg, single intragastric 12.5 mg/kg, 0.25 h, read-out: Plasma concentration, Mean) of 367 ng/mL and a concentration at 0.5 h ([2]; male, SD, plasma, oral, 12.5 mg/kg, single intragastric 12.5 mg/kg, 0.50 h) of 334 ng/mL. The concentration at 1 h ([2]; male, SD, plasma, oral, 12.5 mg/kg, single intragastric 12.5 mg/kg, 1 h, read-out: Plasma concentration, Mean) was 266 ng/mL, the concentration at 2 h ([2]; male, SD, plasma, oral, 12.5 mg/kg, single intragastric 12.5 mg/kg, 2 h) was 109 ng/mL and the concentration at 3 h ([2]; male, SD, plasma, oral, 12.5 mg/kg, single intragastric 12.5 mg/kg, 3 h) was 44.4 ng/mL. For the same molecule, the concentration at 4 h ([2]; male, SD, plasma, oral, 12.5 mg/kg, single intragastric 12.5 mg/kg, 4 h, read-out: Plasma concentration, Mean) was 15.3 ng/mL, the concentration at 6 h ([2]; male, SD, plasma, oral, 12.5 mg/kg, single intragastric 12.5 mg/kg, 6 h) was 6.6 ng/mL and the Cmax ([2]; male, SD, plasma, po, 12.5 mg/kg, intragastric administration 12.5 mg/kg, n = 5, read-out: Cmax) was 361 ± 258 ng/mL. It also gave an AUC(0-inf) [2, 5] of 659 ± 371 ng·h/mL, an MRT inf [2, 5] of 69.6 ± 7.2 min and an AUC(0-inf) [2, 6] of 438 ± 139 ng·h/mL. For the same molecule, the AUC(0-t) [2, 6] was 436 ± 138 ng·h/mL, the MRT inf [2, 6] was 22.2 ± 6.6 min and the “Plasma concentration, individual rats” value ([2]; single intragastric 12.5 mg/kg, 0.08 h) was 140 ng/mL and 3.59 ng/mL and 70.1 ng/mL and 214 ng/mL and 164 ng/mL. For the same molecule, the “Plasma concentration, individual rats” value ([2]; single intragastric 12.5 mg/kg, 0.25 h) was 706 ng/mL and 7.11 ng/mL and 371 ng/mL and 389 ng/mL and 361 ng/mL, the “Plasma concentration, individual rats” value ([2]; single intragastric 12.5 mg/kg, 0.50 h) was 735 ng/mL and 4.71 ng/mL and 416 ng/mL and 268 ng/mL and 246 ng/mL and the “Plasma concentration, individual rats” value ([2]; single intragastric 12.5 mg/kg, 1 h) was 450 ng/mL and BQL and 391 ng/mL and 92.3 ng/mL and 132 ng/mL. For the same molecule, the “Plasma concentration, individual rats” value ([2]; single intragastric 12.5 mg/kg, 2 h) was 224 ng/mL and BQL and 134 ng/mL and 35.8 ng/mL and 43.0 ng/mL, the “Plasma concentration, individual rats” value ([2]; single intragastric 12.5 mg/kg, 3 h) was 84.5 ng/mL and BQL and 58.4 ng/mL and 11.3 ng/mL and 23.6 ng/mL and the “Plasma concentration, individual rats” value ([2]; single intragastric 12.5 mg/kg, 4 h) was 27.3 ng/mL and BQL and 17.3 ng/mL and 10.7 ng/mL and 6.16 ng/mL. The “Plasma concentration, individual rats” value ([2]; single intragastric 12.5 mg/kg, 6 h) was 5.64 ng/mL and BQL and 3.20 ng/mL and 5.66 ng/mL and 12.2 ng/mL, the “Plasma concentration, individual rats” value ([2]; single intragastric 12.5 mg/kg, 8 h) was “BOL and BQL (4×)” and the “Plasma concentration, individual rats” value ([2]; single intravenous 2.5 mg/kg, 0.08 h, 2.5 mg/kg) was 1750 ng/mL and 1150 ng/mL and 659 ng/mL and 865 ng/mL and 1350 ng/mL. For the same molecule, the “Plasma concentration, individual rats” value ([2]; single intravenous 2.5 mg/kg, 0.25 h, 2.5 mg/kg) was 628 ng/mL and 247 ng/mL and 540 ng/mL and 260 ng/mL and 291 ng/mL, the “Plasma concentration, individual rats” value ([2]; single intravenous 2.5 mg/kg, 0.50 h, 2.5 mg/kg) was 243 ng/mL and 75.7 ng/mL and 225 ng/mL and 95.9 ng/mL and 120 ng/mL and the “Plasma concentration, individual rats” value ([2]; single intravenous 2.5 mg/kg, 1 h, 2.5 mg/kg) was 103 ng/mL and 24.9 ng/mL and 80.2 ng/mL and 52.0 ng/mL and 41.6 ng/mL. The “Plasma concentration, individual rats” value ([2]; single intravenous 2.5 mg/kg, 2 h, 2.5 mg/kg) was 25.1 ng/mL and 6.66 ng/mL and 19.3 ng/mL and 15.2 ng/mL and 17.7 ng/mL, the “Plasma concentration, individual rats” value ([2]; single intravenous 2.5 mg/kg, 3 h, 2.5 mg/kg) was 8.95 ng/mL and 2.49 ng/mL and 9.76 ng/mL and 5.45 ng/mL and 7.89 ng/mL and the “Plasma concentration, individual rats” value ([2]; single intravenous 2.5 mg/kg, 4 h, 2.5 mg/kg) was “BQL and 3.38 ng/mL and 2.60 ng/mL and 3.08 ng/mL”. The “Plasma concentration, individual rats” value ([2]; single intravenous 2.5 mg/kg, 6 h) was “BQL” and the “Plasma concentration, individual rats” value ([2]; single intravenous 2.5 mg/kg, 8 h) was “BQL”.
